{"source": "paper PMC5982655", "about": "“Interaction of the New Monofunctional Anticancer Agent Phenanthriplatin With Transporters for Organic Cations” (Frontiers in Chemistry, 2018)", "key": {"hOCT1": {"target": "T1, hOCT1 (Homo sapiens, UniProt O15245)", "T1 construct": "expressed in transfected cells; gift of H. Koepsell", "T1 sequence (O15245 1-554)": "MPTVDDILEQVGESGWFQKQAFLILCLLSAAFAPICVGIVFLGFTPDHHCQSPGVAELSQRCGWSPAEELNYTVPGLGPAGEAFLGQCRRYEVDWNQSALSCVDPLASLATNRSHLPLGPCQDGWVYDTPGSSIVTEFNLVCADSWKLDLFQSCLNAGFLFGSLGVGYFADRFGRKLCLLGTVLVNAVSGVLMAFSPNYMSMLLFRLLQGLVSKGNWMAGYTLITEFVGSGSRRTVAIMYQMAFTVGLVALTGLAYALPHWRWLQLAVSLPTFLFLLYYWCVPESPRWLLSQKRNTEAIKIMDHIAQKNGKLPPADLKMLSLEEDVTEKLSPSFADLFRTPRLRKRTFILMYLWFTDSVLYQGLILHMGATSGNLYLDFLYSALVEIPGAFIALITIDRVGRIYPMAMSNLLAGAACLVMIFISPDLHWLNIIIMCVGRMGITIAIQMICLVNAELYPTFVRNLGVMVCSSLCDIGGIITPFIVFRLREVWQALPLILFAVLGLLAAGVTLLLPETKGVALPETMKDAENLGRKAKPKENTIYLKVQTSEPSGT", "experiment": "Inhibition of ASP+ uptake in HEK 293 cells expressing hOCT1", "type": "cell-based", "conditions": "HEK 293 hOCT1, 1 μM ASP+", "description": "(§1) The interaction of phenanthriplatin with transporters for organic cations (OCT1-3, MATE1, and MATE2K) was investigated by measuring its effects on the uptake of the fluorescent organic cation 4-(4-dimethylamino)styryl-N-methylpyridinium (ASP^+). Microfluorometric measurements of ASP^+ uptake were performed with a fluorescence plate reader (Infinity 200, Tecan, Crailsheim, Germany; excitation at 465 nm, emission at 590 nm) as described previously for cultured HEK 293 cells (Wilde et al., [2009]). Before measurements, the culture medium in the wells of the 96 well microtiter plate containing HEK 293 cells was replaced by a HCO3- -free Ringer-like solution containing (in mM) NaCl 145, K2HPO4 1.6, KH2PO4 0.4, D-glucose 5, MgCl2 1, calcium gluconate 1.3, and pH adjusted to 7.4. Fluorescence was measured dynamically at 37°C in each well before and after ASP^+ addition to HCO3- -free Ringer-like solution, alone or together with increasing phenanthriplatin concentrations, and plotted versus time. ASP^+ (final concentration 1 or 10 μM for experiments with OCTs or MATEs, respectively) was added after the third sampling interval. Emission from the complete area of the well bottom was analyzed four times and averaged for each well. […] Background fluorescence was measured for each plate in wells with identical solutions containing no cells and subtracted from each well containing cells. Experiments were performed with cells from one passage of the same day with controls and test replicates in the same plate.\n(§2) Data are presented as mean values ± SEM, with (n) referring to the number of wells. IC50 values defined as the concentration of platinum agent required to inhibit uptake of ASP^+ by 50% and EC50 values used to assess cell viability were obtained by sigmoidal concentration-response curve fitting using GraphPad Prism, Version 5.3 (GraphPad Software, San Diego, USA). […] For multiple comparisons, ANOVA with Bonferroni post-test was used. A P-value < 0.05 was considered statistically significant."}, "mOCT1": {"target": "T2, mOCT1 (Mus musculus, UniProt O08966)", "T2 construct": "expressed in transfected cells", "T2 sequence (O08966 1-556)": "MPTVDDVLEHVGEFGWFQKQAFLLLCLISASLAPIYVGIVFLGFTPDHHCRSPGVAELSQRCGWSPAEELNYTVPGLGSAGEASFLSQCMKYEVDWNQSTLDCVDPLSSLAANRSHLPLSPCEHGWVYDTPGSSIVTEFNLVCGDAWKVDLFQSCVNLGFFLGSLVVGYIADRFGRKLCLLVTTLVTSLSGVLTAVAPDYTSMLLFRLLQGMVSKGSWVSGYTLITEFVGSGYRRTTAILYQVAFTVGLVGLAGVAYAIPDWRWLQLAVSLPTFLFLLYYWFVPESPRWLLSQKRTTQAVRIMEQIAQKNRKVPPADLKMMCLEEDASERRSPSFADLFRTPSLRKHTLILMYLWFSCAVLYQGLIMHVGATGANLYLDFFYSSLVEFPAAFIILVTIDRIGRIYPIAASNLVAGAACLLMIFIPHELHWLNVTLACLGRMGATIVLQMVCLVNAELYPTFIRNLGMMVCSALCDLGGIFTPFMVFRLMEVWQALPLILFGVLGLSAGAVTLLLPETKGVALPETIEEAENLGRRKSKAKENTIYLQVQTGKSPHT", "experiment": "Inhibition of ASP+ uptake in HEK 293 cells expressing mOCT1", "type": "cell-based, murine", "conditions": "HEK 293 mOCT1, 1 μM ASP+", "description": "as §1, with “Experiments were performed with cells from one passage of the same day with controls and test replicates in the same plate.” left out"}, "hOCT2": {"target": "T3, hOCT2 (Homo sapiens, UniProt O15244)", "T3 construct": "expressed in transfected cells; gift of H. Koepsell", "T3 sequence (O15244 1-555)": "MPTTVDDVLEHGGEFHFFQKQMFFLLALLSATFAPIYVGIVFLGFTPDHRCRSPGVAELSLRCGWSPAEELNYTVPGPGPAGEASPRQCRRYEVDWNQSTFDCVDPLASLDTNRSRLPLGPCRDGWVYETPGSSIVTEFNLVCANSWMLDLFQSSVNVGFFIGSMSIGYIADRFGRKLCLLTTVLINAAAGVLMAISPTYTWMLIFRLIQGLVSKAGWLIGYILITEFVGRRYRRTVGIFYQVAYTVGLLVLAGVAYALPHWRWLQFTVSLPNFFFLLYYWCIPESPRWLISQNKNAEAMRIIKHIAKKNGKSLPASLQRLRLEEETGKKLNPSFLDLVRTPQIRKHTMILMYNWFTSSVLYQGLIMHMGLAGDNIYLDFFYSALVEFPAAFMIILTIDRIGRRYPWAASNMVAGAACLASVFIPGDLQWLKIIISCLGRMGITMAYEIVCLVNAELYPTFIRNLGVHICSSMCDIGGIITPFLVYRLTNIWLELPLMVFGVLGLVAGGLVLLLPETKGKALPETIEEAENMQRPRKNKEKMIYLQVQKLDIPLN", "experiment": "Inhibition of ASP+ uptake in HEK 293 cells expressing hOCT2", "type": "cell-based", "conditions": "HEK 293 hOCT2, 1 μM ASP+", "description": "as §1, §2"}}, "data": [{"smiles": "N.N.[Cl][Pt+].c1ccc2c(c1)cnc1ccccc12", "note": "[phenanthriplatin, cis-[Pt(NH3)2Cl(phenanthridine)]^+]", "values": [{"measurement": "IC50", "setting": "hOCT1", "value": 19, "unit": "µM"}, {"measurement": "logIC50 (logEC50) ± SEM for inhibition of ASP+ uptake", "setting": "hOCT1", "value": "−4.72 ± 0.21"}, {"measurement": "IC50", "setting": "mOCT1", "value": 17, "unit": "µM"}, {"measurement": "logIC50 (logEC50) ± SEM for inhibition of ASP+ uptake", "setting": "mOCT1", "value": "−4.77 ± 0.22"}, {"measurement": "IC50", "setting": "hOCT2", "value": 2, "unit": "µM"}, {"measurement": "logIC50 (logEC50) ± SEM for inhibition of ASP+ uptake", "setting": "hOCT2", "value": "−5.67 ± 0.10"}]}]}
